According to publication PMC12041525, “Mechanistic studies of mycobacterial glycolipid biosynthesis by the mannosyltransferase PimE” (Nature Communications, 2025):

Target: T1, MaPimE (Mycobacteroides abscessus, UniProt A0ABD7HTP3)
T1 construct: gene D2E76_03800; full-length WT, His-tagged, pNYCOMPSC23, E. coli BL21(DE3) pLysS; membrane fraction (kinetics) or DDM-purified in MSP1E3D1/POPC nanodiscs with Fab-E6 (cryo-EM); 46 kDa
Experiment: cryo-EM structure of the complex, […] Å
Format: binding
Details: nanodisc, Fab-E6 bound; formed from added PPM; only first three prenyl units resolved

T1 sequence (A0ABD7HTP3 entry or part of it): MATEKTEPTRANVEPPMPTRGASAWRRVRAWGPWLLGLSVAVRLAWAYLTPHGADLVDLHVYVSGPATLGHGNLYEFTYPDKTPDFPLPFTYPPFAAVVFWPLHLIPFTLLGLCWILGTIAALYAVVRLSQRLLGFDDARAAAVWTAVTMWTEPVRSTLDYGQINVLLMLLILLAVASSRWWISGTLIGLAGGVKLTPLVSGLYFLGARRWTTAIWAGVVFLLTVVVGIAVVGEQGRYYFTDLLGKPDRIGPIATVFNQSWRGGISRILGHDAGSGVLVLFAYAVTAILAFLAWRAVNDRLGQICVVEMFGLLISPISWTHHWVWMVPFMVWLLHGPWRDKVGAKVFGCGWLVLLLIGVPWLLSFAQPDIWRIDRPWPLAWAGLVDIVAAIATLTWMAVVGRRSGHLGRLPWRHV

## CC(C)=CCC/C(C)=C/CC/C(C)=C\CC/C(C)=C\CC/C(C)=C\CC/C(C)=C\CC/C(C)=C\CC/C(C)=C\CC/C(C)=C\CC/C(C)=C\COP(=O)(O)O [PP, polyprenyl phosphate]
  cryo-EM structure of the complex, 3.5 Å: led us to interpret it as the PP portion of the PPM donor
